Results reported in patent US20250376461A1, “INDAZOLE DERIVATIVES FOR TREATING TRPM3-MEDIATED DISORDERS” (Katholieke Universiteit Leuven, priority 2022, published 2025).

target: T1, mouse TRPM3α2 (mTRPM3) ion channel (Mus musculus, UniProt J9SQF3); experiment: TRPM3 ion channel driven Ca2+ uptake, Fluo-4 AM assay, mTRPM3alpha2 overexpressing flip-in HEK293 cells stimulated with pregnenolone sulfate (50 μM); assay type: cell-based; settings: mTRPM3 overexpressing HEK293 cells stimulated with pregnenolone sulfate (50 μM), activity ranges A, B, C
T1 construct: expressed in transfected cells; host or cells: flip-in HEK293
How it was run: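 Flip-in HEK293 cells overexpressing mTRPM3α2, loaded with Fluo-4 AM, added at ±2000 cells/well to plates holding compound plus 50 μM pregnenolone sulfate in Ca2+-containing Krebs buffer. Fluorescence (ex 485/em 535 nm) read immediately. Percent inhibition normalised between vehicle and positive-control inhibitor; IC50 derived.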

T1 sequence (J9SQF3 1-1709 isoform J9SQF3-12): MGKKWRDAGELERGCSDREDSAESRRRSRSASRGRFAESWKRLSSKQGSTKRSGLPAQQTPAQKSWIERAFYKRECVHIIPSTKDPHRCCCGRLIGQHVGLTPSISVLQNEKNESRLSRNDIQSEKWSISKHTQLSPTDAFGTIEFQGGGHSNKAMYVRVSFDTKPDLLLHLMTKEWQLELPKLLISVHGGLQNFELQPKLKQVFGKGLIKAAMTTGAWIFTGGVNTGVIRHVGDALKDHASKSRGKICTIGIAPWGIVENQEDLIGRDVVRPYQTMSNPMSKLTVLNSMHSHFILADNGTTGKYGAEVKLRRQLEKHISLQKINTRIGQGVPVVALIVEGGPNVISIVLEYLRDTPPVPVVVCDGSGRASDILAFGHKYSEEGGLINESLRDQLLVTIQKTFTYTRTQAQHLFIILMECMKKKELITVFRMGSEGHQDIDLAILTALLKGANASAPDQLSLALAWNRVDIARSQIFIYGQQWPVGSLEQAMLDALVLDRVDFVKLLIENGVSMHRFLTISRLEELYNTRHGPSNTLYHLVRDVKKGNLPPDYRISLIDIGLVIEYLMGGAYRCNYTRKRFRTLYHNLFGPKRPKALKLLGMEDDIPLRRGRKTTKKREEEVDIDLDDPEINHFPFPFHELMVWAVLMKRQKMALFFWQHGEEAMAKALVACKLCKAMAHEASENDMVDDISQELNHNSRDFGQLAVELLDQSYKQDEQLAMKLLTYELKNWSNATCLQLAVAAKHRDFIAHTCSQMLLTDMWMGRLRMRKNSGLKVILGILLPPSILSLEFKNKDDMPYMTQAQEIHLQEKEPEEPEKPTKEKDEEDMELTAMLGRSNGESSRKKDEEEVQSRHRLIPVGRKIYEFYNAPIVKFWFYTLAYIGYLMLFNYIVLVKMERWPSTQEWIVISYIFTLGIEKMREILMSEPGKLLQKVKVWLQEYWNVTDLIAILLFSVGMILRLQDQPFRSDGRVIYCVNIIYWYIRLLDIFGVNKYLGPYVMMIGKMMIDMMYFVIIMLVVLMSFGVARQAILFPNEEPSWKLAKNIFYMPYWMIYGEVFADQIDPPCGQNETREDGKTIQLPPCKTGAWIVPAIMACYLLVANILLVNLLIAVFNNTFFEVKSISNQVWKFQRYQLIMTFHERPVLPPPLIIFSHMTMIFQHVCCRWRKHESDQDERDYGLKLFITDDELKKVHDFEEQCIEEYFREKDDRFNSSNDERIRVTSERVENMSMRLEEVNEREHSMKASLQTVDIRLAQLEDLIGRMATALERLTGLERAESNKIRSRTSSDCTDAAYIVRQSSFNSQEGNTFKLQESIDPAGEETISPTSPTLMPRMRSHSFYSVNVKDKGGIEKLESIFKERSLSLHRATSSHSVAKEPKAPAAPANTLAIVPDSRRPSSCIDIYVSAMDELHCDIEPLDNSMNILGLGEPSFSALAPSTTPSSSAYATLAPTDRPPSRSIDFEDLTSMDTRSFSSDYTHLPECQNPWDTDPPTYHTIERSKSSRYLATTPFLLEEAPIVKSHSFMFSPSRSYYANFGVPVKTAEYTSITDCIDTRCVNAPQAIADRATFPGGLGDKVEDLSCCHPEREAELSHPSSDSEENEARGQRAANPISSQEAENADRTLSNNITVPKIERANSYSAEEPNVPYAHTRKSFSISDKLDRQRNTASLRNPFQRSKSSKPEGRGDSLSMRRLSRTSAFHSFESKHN

`Cc1ncsc1COc1ccc2nn(C)c(C(=O)N[C@@H](C)C(N)=O)c2c1` [Cpd 101, (2S)-2-({2-methyl-5-[(4-methyl-1,3-thiazol-5-yl)methoxy]-2H-indazol-3-yl}formamido)propanamide] and `Cc1ncsc1COc1ccc2nn(C)c(C(=O)N[C@H](C)C(N)=O)c2c1` [Cpd 118, (2R)-2-({2-methyl-5-[(4-methyl-1,3-thiazol-5-yl)methoxy]-2H-indazol-3-yl}formamido)propanamide] fall in the same range of IC50: 1 to 20 µM for the first, 1 to 20 µM for the second.

First: Cn1nc2ccc(OCc3ccccn3)cc2c1C(=O)NC1CCOCC1 [Cpd 102, 2-methyl-N-(oxan-4-yl)-5-[(pyridin-2-yl)methoxy]-2H-indazole-3-carboxamide]
Second: Cn1nc2ccc(OCc3ccccn3)cc2c1C(=O)NC1(CO)CCOCC1 [Cpd 106, N-[4-(hydroxymethyl)oxan-4-yl]-2-methyl-5-[(pyridin-2-yl)methoxy]-2H-indazole-3-carboxamide]
The IC50 of the first is higher: over 20 µM for the first, 1 to 20 µM for the second. The second is the more potent here.

`Cc1ncc(COc2ccc3nn(C)c(C(=O)NC(C)(C)C(N)=O)c3c2)s1` [Cpd 103, 2-methyl-2-({2-methyl-5-[(2-methyl-1,3-thiazol-5-yl)methoxy]-2H-indazol-3-yl}formamido)propanamide] and `Cc1ncsc1COc1ccc2nn(C)c(C(=O)NC(C)(C)C(N)=O)c2c1` [Cpd 110, 2-methyl-2-({2-methyl-5-[(4-methyl-1,3-thiazol-5-yl)methoxy]-2H-indazol-3-yl}formamido)propanamide] fall in the same range of IC50: 1 to 20 µM for the first, 1 to 20 µM for the second.

Going from `Cn1nc2ccc(OCc3ccccn3)cc2c1C(=O)NC1(CO)CC1` [Cpd 104, N-[1-(hydroxymethyl)cyclopropyl]-2-methyl-5-[(pyridin-2-yl)methoxy]-2H-indazole-3-carboxamide] to `Cn1nc2ccc(OCc3ccccn3)cc2c1C(=O)NC(C)(CO)CO` [Cpd 127, N-(1,3-dihydroxy-2-methylpropan-2-yl)-2-methyl-5-[(pyridin-2-yl)methoxy]-2H-indazole-3-carboxamide], the IC50 falls from over 20 µM to under 1 µM.

Compared with `Cc1ncc(COc2ccc3nn(C)c(C(=O)NC4(CO)COC4)c3c2)s1` [Cpd 105, N-[3-(hydroxymethyl)oxetan-3-yl]-2-methyl-5-[(2-methyl-1,3-thiazol-5-yl)methoxy]-2H-indazole-3-carboxamide], `Cc1ncc(COc2ccc3nn(C)c(C(=O)NC4(CO)CC4)c3c2)s1` [Cpd 114, N-[1-(hydroxymethyl)cyclopropyl]-2-methyl-5-[(2-methyl-1,3-thiazol-5-yl)methoxy]-2H-indazole-3-carboxamide] is higher in IC50: 1 to 20 µM for the first, over 20 µM for the second. The first is the more potent here.

`Cc1ncsc1COc1ccc2nn(C)c(C(=O)NC3(C(N)=O)CCOCC3)c2c1` [Cpd 107, N-(4-carbamoyloxan-4-yl)-2-methyl-5-[(4-methyl-1,3-thiazol-5-yl)methoxy]-2H-indazole-3-carboxamide] and `Cc1ncsc1COc1ccc2nn(C)c(C(=O)NC3CCOCC3)c2c1` [Cpd 115, 2-methyl-5-[(4-methyl-1,3-thiazol-5-yl)methoxy]-N-(oxan-4-yl)-2H-indazole-3-carboxamide] fall in the same range of IC50: 1 to 20 µM for the first, 1 to 20 µM for the second.

First: Cc1ncc(COc2ccc3nn(C)c(C(=O)NC4(CO)CCC4)c3c2)s1 [Cpd 108, N-[1-(hydroxymethyl)cyclobutyl]-2-methyl-5-[(2-methyl-1,3-thiazol-5-yl)methoxy]-2H-indazole-3-carboxamide]
Second: Cc1ncc(COc2ccc3nn(C)c(C(=O)NC4(CO)CCOCC4)c3c2)s1 [Cpd 124, N-[4-(hydroxymethyl)oxan-4-yl]-2-methyl-5-[(2-methyl-1,3-thiazol-5-yl)methoxy]-2H-indazole-3-carboxamide]
The IC50 of the first is lower: 1 to 20 µM for the first, over 20 µM for the second. The first is the more potent here.

`Cc1ncsc1COc1ccc2nn(C)c(C(=O)NC3(CO)COC3)c2c1` [Cpd 109, N-[3-(hydroxymethyl)oxetan-3-yl]-2-methyl-5-[(4-methyl-1,3-thiazol-5-yl)methoxy]-2H-indazole-3-carboxamide] and `Cc1ncsc1COc1ccc2nn(C)c(C(=O)N[C@H](CO)C(N)=O)c2c1` [Cpd 113, (2R)-3-hydroxy-2-({2-methyl-5-[(4-methyl-1,3-thiazol-5-yl)methoxy]-2H-indazol-3-yl}formamido)propanamide] fall in the same range of IC50: 1 to 20 µM for the first, 1 to 20 µM for the second.

`Cc1ncc(COc2ccc3nn(C)c(C(=O)NC4CCN(C)CC4)c3c2)s1` [Cpd 111, 2-methyl-5-[(2-methyl-1,3-thiazol-5-yl)methoxy]-N-(1-methylpiperidin-4-yl)-2H-indazole-3-carboxamide] and `Cc1ncsc1COc1ccc2nn(C)c(C(=O)NC3CCN(C)CC3)c2c1` [Cpd 112, 2-methyl-5-[(4-methyl-1,3-thiazol-5-yl)methoxy]-N-(1-methylpiperidin-4-yl)-2H-indazole-3-carboxamide] cannot be ordered by IC50: over 20 µM for the first, over 20 µM for the second.

First: Cc1ncsc1COc1ccc2nn(C)c(C(=O)N[C@@H](CO)C(N)=O)c2c1 [Cpd 116, (2S)-3-hydroxy-2-({2-methyl-5-[(4-methyl-1,3-thiazol-5-yl)methoxy]-2H-indazol-3-yl}formamido)propanamide]
Second: Cc1ncc(COc2ccc3nn(C)c(C(=O)N[C@@H](CO)C(N)=O)c3c2)s1 [Cpd 126, (2S)-3-hydroxy-2-({2-methyl-5-[(2-methyl-1,3-thiazol-5-yl)methoxy]-2H-indazol-3-yl}formamido)propanamide]
The IC50 of the first is lower: under 1 µM for the first, 1 to 20 µM for the second. The first is the more potent here.

First: Cc1ncc(COc2ccc3nn(C)c(C(=O)N[C@H](C)C(N)=O)c3c2)s1 [Cpd 117, (2R)-2-({2-methyl-5-[(2-methyl-1,3-thiazol-5-yl)methoxy]-2H-indazol-3-yl}formamido)propanamide]
Second: Cc1ncc(COc2ccc3nn(C)c(C(=O)N[C@@H](C)C(N)=O)c3c2)s1 [Cpd 119, (2S)-2-({2-methyl-5-[(2-methyl-1,3-thiazol-5-yl)methoxy]-2H-indazol-3-yl}formamido)propanamide]
The IC50 of the first is higher: over 20 µM for the first, 1 to 20 µM for the second. The second is the more potent here.

`Cc1ncc(COc2ccc3nn(C)c(C(=O)NC4CCOCC4)c3c2)s1` [Cpd 120, 2-methyl-5-[(2-methyl-1,3-thiazol-5-yl)methoxy]-N-(oxan-4-yl)-2H-indazole-3-carboxamide] and `Cn1nc2ccc(OCC3CC3)cc2c1C(=O)NCC1CC1` [Cpd 133, 5-(cyclopropylmethoxy)-N-(cyclopropylmethyl)-2-methyl-2H-indazole-3-carboxamide] cannot be ordered by IC50: over 20 µM for the first, over 20 µM for the second.

First: C[C@@H](NC(=O)c1c2cc(OCC3CC3)ccc2nn1C)C(N)=O [Cpd 121, (2R)-2-{[5-(cyclopropylmethoxy)-2-methyl-2H-indazol-3-yl]formamido}propanamide]
Second: C[C@@H](O)[C@H](NC(=O)c1c2cc(OCC3CC3)ccc2nn1C)C(N)=O [Cpd 138, (2S,3R)-2-{[5-(cyclopropylmethoxy)-2-methyl-2H-indazol-3-yl]formamido}-3-hydroxybutanamide]
The IC50 of the first is lower: under 1 µM for the first, 1 to 20 µM for the second. The first is the more potent here.

First: Cn1nc2ccc(OCc3cccnc3C(F)(F)F)cc2c1C(=O)O [Cpd 122, 2-methyl-5-((2-(trifluoromethyl)pyridin-3-yl)methoxy)-2H-indazole-3-carboxylic acid]
Second: Cn1nccc1COc1ccc2nn(C)c(C(=O)O)c2c1 [Cpd 123, 2-methyl-5-[(1-methyl-1H-pyrazol-5-yl)methoxy]-2H-indazole-3-carboxylic acid]
The IC50 of the first is lower: 1 to 20 µM for the first, over 20 µM for the second.

`Cn1nc2ccc(OCC3CCC3)cc2c1C(=O)NC(C)(CO)CO` [Cpd 129, 5-(cyclobutylmethoxy)-N-(1,3-dihydroxy-2-methylpropan-2-yl)-2-methyl-2H-indazole-3-carboxamide] and `Cn1nc2ccc(OCC3CC3)cc2c1C(=O)NC(C)(CO)CO` [Cpd 135, 5-(cyclopropylmethoxy)-N-(1,3-dihydroxy-2-methylpropan-2-yl)-2-methyl-2H-indazole-3-carboxamide] fall in the same range of IC50: 1 to 20 µM for the first, 1 to 20 µM for the second.

First: Cn1nc2ccc(OCC3CCC3)cc2c1C(=O)N[C@@H](CO)C(N)=O [Cpd 130, (2S)-2-{[5-(cyclobutylmethoxy)-2-methyl-2H-indazol-3-yl]formamido}-3-hydroxypropanamide]
Second: Cn1nc2ccc(OCC3CC3)cc2c1C(=O)N[C@H](CO)C(N)=O [Cpd 136, (2R)-2-{[5-(cyclopropylmethoxy)-2-methyl-2H-indazol-3-yl]formamido}-3-hydroxypropanamide]
The IC50 of the first is lower: under 1 µM for the first, 1 to 20 µM for the second. The first is the more potent here.

First: Cc1ncc(COc2ccc3nn(C)c(C(=O)NC(C)(CO)CO)c3c2)o1 [Cpd 131, N-(1,3-dihydroxy-2-methylpropan-2-yl)-2-methyl-5-[(2-methyl-1,3-oxazol-5-yl)methoxy]-2H-indazole-3-carboxamide]
Second: Cc1ncc(COc2ccc3nn(C)c(C(=O)N[C@@H](CO)C(N)=O)c3c2)o1 [Cpd 141, (2S)-3-hydroxy-2-({2-methyl-5-[(2-methyl-1,3-oxazol-5-yl)methoxy]-2H-indazol-3-yl}formamido)propanamide]
The IC50 of the first is higher: 1 to 20 µM for the first, under 1 µM for the second.

Compared with `Cn1nc2ccc(OCC3CC3)cc2c1C(=O)NC(C)(C)C(N)=O` [Cpd 134, 2-{[5-(cyclopropylmethoxy)-2-methyl-2H-indazol-3-yl]formamido}-2-methylpropanamide], `Cn1nc2ccc(OCC3CC3)cc2c1C(=O)N[C@@H](CO)C(N)=O` [Cpd 137, (2S)-2-{[5-(cyclopropylmethoxy)-2-methyl-2H-indazol-3-yl]formamido}-3-hydroxypropanamide] is lower in IC50: 1 to 20 µM for the first, under 1 µM for the second.

Going from `Cn1nc2ccc(OCC3CC3)cc2c1C(=O)NCCNS(C)(=O)=O` [Cpd 140, 5-(cyclopropylmethoxy)-N-(2-methanesulfonamidoethyl)-2-methyl-2H-indazole-3-carboxamide] to `Cn1nc2ccc(OCC3CCCC3)cc2c1C(=O)N[C@@H](CO)C(N)=O` [Cpd 143, (2S)-2-{[5-(cyclopentylmethoxy)-2-methyl-2H-indazol-3-yl]formamido}-3-hydroxypropanamide], the IC50 falls from over 20 µM to under 1 µM.

`Cc1ncc(COc2ccc3nn(C)c(C(=O)N[C@H](C(N)=O)[C@@H](C)O)c3c2)o1` [Cpd 142, (2S,3R)-3-hydroxy-2-({2-methyl-5-[(2-methyl-1,3-oxazol-5-yl)methoxy]-2H-indazol-3-yl}formamido)butanamide] showed an IC50 of 1 to 20 µM.
